From article PMC10573062, “Synthesis, Structural Characterization, Cytotoxicity, and Protein/DNA Binding Properties of Pyridoxylidene-Aminoguanidine-Metal (Fe, Co, Zn, Cu) Complexes” (International Journal of Molecular Sciences, 2023)

Experiments:
[1] = test system: HCT116 cell lines; parameters: method as in PMID 30798514; conditions: previous study; cited from earlier work
[2] = Qualitative solubility in solvents; format: physicochemical
[3] = test system: HCT116 colorectal carcinoma; test: CV (crystal-violet) viability assay, HCT116; format: cell-based, human; conditions: 72 h of treatment
Protocol: (§1) The following cell lines were used in this study: human cell lines (A375 melanoma, MCF-7 breast cancer, HCT116 colorectal carcinoma, and A2780 ovarian cancer. These cell lines were purchased from the American Type Culture Collection (Rockville, MD, USA). The A2780 cells were cultivated in DMEM, while all other cell lines were cultivated in the HEPES-buffered RPMI-1640 medium. The cell culture mediums were supplemented with penicillin (1000 units/mL), streptomycin (100 µg/mL), and 10% inactivated FBS. All cells were cultivated at 37 °C in a humidified atmosphere with 5% CO2.
(§2) Two colorimetric viability assays were applied, namely 3-(4,5-dimethylthiazol-2-yl)-2,5-diphenyl-2H-tetrazolium bromide (MTT) and crystal-violet (CV) (Sigma Aldrich, St. Louis, MO, USA), according to the previous studies. The cells were seeded overnight in 96-well plates: A2780 and MRC-5 8 × 10^3 cells/well, HCT 116 6 × 10^3 cells/well, A375 5 × 10^3 cells/well, and MCF-7 at 10 × 10^3 cells/well [67]. The standard solutions of complexes were prepared in DMSO. All cells were treated with the following concentrations of investigated compounds: 100, 50, 25, 12.5, 6.25, 3.125, and 1.56 µM. After 72 h of treatment, viability assays were conducted. For the CV assay, cells were fixed using 4% paraformaldehyde (PFA) for 20 min at room temperature after being washed once with PBS. Afterward, they were stained with 0.2% CV solution for 25 min. This procedure was followed by washing with double distilled water. The cells were left to dry overnight at room temperature. In the last step, 33% acetic acid was used to dissolve the remaining dye. The other test included incubating cells in MTT solution (0.5 mg L^−1 in cell culture medium) for […] at 37 °C in a humid environment with 5% CO2. After one hour, the MTT solution was discarded, and the formed formazan was dissolved using DMSO. A plate reader (Spectromax, Molecular Devices, San Jose, CA, USA) was utilized for the absorption measurements at 570 and 670 (background) nm. The cell viability was calculated as the percentage compared to untreated cells, and the mean was obtained using a four-parametric logistic function. Each of the three independent experiments was performed in quadruplicate.

[4] = target: T1, bovine serum albumin (BSA) (Bos taurus, UniProt P02769); test: Spectrofluorometric titration of BSA (fluorescence quenching, double log Stern–Volmer, van't Hoff); format: binding; conditions: for ΔHb / ΔSb: van't Hoff over three temperatures
T1 construct: purchased
Protocol: (§3) The protein binding affinity of obtained compounds was analyzed by the spectrofluorometric titration of BSA and HSA solution by the solution containing obtained compounds. The mixture was irradiated by light with a wavelength of 295 (BSA) and 280 nm (HSA). Both proteins contain fluorescent amino acids within active pockets, and the binding process can be monitored through the change in intensity and position of the emitted light maxima. The fluorescent emission depends on the chemical environment of amino acids. The measurements for each complex were repeated at three temperatures to allow the determination of the thermodynamic parameters of binding.
(§4) The spectrofluorometric measurements were used to investigate the binding process of obtained compounds towards bovine serum albumin (BSA) and human serum albumin (HSA) on the Cary Eclipse MY2048CH03 instrument. The scan rate was 600 nm min^−1, and both slits were 5 nm. The excitation wavelengths were 295 nm and 280 nm for BSA and HSA, respectively. These energies are characteristics of the protein structure’s tryptophan and other fluorescent amino acid residues. The emission spectra were recorded between 310 and 500 nm. The concentration of proteins was held constant at 5 × 10^−6 M in […] phosphate buffer saline (pH = 7.4). The concentration of complexes changed from 1 to 10 × 10^−6 M, and the emission spectrum was recorded two minutes after the addition of compounds. The data were analyzed by the double log Stern–Volmer quenching equation (Equation (2)):(2) logI0−I/I=logKb+nlogQ
In the previous equation, I0 and I are the fluorescent emission intensities of BSA/HSA without and with added metal complexes, respectively; Kb is the binding constant; n is the number of binding places; and [Q] is the concentration of quenchers (metal complexes). […]

[5] = test system: MCF-7 breast cancer; test: CV (crystal-violet) viability assay, MCF-7; format: cell-based, human; conditions: MCF-7, CV, 72 h of treatment
Protocol: as §1, §2

[6] = target: T2, human serum albumin (HSA) (Homo sapiens, UniProt P02768); test: Spectrofluorometric titration of HSA (fluorescence quenching, double log Stern–Volmer, van't Hoff); format: binding; conditions: for ΔHb / ΔSb: van't Hoff over three temperatures
T2 construct: purchased
Protocol: as §3
The binding affinity of obtained complexes was also examined towards HSA as a transport protein relevant to the human body. The temperature range was changed to reflect better temperatures common for humans (32–42 °C). The representative example of the HAS fluorescence measurements is shown in Figure 9, along with van’t Hoff’s plot. The decrease in the fluorescence intensity emission was also dependent on the concentration of complexes. On average, the binding constants were similar to the ones calculated for BSA. […] High correlation coefficients, between 0.990 and 0.998, were calculated for the dependency described by Equation (2). The number of binding places is 1, proving that the same type of complexes were formed between investigated compounds and HAS as previously shown for BSA.
as §4
In the previous equation, I0 and I are the fluorescent emission intensities of BSA/HSA without and with added metal complexes, respectively; Kb is the binding constant; n is the number of binding places; and [Q] is the concentration of quenchers (metal complexes).
The changes in enthalpy and entropy of the binding process were determined from the vant’t Hoff equation (Equation (3)) following the measurements at three temperatures (27, 32, and 37 °C):(3) lnKb=−∆Hb/RT+∆Sb/R

[7] = test system: A2780 ovarian cancer; test: CV (crystal-violet) viability assay, A2780; format: cell-based, human; conditions: 72 h of treatment
Protocol: as §1, §2

[8] = test system: HCT116 colorectal carcinoma; test: MTT viability assay, HCT116; format: cell-based, human; conditions: 72 h of treatment
Protocol: as §1, §2

[9] = test system: MCF-7 breast cancer; test: MTT viability assay, MCF-7; format: cell-based, human; conditions: MCF-7, MTT, 72 h of treatment
Protocol: as §1, §2

[10] = test system: A2780 ovarian cancer; test: MTT viability assay, A2780; format: cell-based, human; conditions: 72 h of treatment
Protocol: as §1, §2

[11] = test system: A375 melanoma; test: MTT viability assay, A375; format: cell-based, human; conditions: 72 h of treatment
Protocol: as §1
as §2, with “After one hour, the MTT solution was discarded, and the formed formazan was dissolved using DMSO.” left out, “Each of the three independent experiments was performed in quadruplicate.” left out

[12] = test system: A375 melanoma; test: CV (crystal-violet) viability assay, A375; format: cell-based, human; conditions: 72 h of treatment
Protocol: as §1
as §2, with “After one hour, the MTT solution was discarded, and the formed formazan was dissolved using DMSO.” left out, “Each of the three independent experiments was performed in quadruplicate.” left out

[13] = in chloroform, dimethylsulfoxide, dimethylformamide, acetone, and acetonitrile
[14] = in methanol, ethanol, phosphate buffer saline, and water

T1 sequence (P02769 25-607): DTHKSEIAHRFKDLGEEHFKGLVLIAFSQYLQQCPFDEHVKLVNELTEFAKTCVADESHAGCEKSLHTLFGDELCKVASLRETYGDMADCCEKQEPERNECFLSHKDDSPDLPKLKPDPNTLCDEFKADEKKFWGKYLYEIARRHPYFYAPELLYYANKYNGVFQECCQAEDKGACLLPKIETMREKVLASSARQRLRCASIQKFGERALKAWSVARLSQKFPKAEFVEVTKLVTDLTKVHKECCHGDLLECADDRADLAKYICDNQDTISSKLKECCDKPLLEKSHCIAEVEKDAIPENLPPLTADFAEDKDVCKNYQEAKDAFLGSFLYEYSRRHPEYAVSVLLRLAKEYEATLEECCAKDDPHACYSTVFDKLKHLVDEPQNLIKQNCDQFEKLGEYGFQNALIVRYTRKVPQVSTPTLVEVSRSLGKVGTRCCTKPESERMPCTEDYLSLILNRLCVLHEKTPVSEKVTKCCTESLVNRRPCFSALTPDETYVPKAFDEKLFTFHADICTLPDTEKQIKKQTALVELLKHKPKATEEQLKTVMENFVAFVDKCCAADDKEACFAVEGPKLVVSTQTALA
T2 sequence (P02768 25-609): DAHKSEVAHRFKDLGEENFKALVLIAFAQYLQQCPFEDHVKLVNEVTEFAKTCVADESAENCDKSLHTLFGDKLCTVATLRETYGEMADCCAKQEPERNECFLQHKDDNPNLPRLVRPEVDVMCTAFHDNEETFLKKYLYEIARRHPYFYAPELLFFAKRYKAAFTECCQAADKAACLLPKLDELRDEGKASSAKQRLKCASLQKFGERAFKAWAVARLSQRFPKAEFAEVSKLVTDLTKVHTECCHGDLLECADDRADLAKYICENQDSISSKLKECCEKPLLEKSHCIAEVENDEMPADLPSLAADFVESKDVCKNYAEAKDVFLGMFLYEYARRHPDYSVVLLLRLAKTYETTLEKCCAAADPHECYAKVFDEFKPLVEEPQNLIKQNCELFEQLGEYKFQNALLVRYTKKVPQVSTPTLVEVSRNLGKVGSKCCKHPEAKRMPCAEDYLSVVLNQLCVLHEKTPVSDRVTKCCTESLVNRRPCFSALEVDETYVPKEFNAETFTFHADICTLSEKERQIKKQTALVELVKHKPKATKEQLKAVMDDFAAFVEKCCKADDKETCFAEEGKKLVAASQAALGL

| solubility ([2]; in diethyl ether and toluene) | IC50 [3] | Kb (binding constant) ([4]; 27 °C) | n (number of binding places) ([4]; 27 °C) | ΔGb ([4]; 27 °C) | Kb (binding constant) ([4]; 32 °C) | n (number of binding places) ([4]; 32 °C) | ΔGb ([4]; 32 °C) | Kb (binding constant) ([4]; 35 °C) | n (number of binding places) ([4]; 35 °C) | ΔGb ([4]; 35 °C) | ΔHb [4] | ΔSb [4] | IC50 [5] | n (number of binding places) ([6]; 32 °C) | ΔGb ([6]; 32 °C) | n (number of binding places) ([6]; 37 °C) | ΔGb ([6]; 37 °C) | n (number of binding places) ([6]; 42 °C) | ΔGb ([6]; 42 °C) | Molecule | also measured |
| --- | --- | --- | --- | --- | --- | --- | --- | --- | --- | --- | --- | --- | --- | --- | --- | --- | --- | --- | --- | --- | --- |
| – | – | – | – | – | – | – | – | – | – | – | – | – | – | – | – | – | – | – | – | O=S(=O)([O-])[O-].[Cu+2] [CuSO4] | activity towards HCT116 cell line [1]: almost completely inactive |
| insoluble | – | – | – | – | – | – | – | – | – | – | – | – | – | – | – | – | – | – | – | Cc1ncc(CO)c(/C=N/N=C(N)N)c1O [PLAG, Pyridoxylidene-aminoguanidine] | solubility ([2]; in MeOH and DMF): soluble; solubility ([2]; in methanol, ethanol, and water): moderately soluble |
| insoluble | 97.4 ± 3.7 µM | 9630 M⁻¹ | 1.13 | -5.382 kcal/mol | 89700 M⁻¹ | 1.10 | -7.087 kcal/mol | 1.82e+06 M⁻¹ | 0.98 | -8.788 kcal/mol | 96.793 kcal/mol | 1425.02 J mol^−1 K^−1 | 65.4 ± 4.8 µM | 0.91 | -5.37 kcal/mol | 0.90 | -5.961 kcal/mol | 0.98 | -6.554 kcal/mol | Cu(PLAG)(NCS)2 [Cu-PLAG] | ΔHb [6]: 30.727 kcal/mol; ΔSb [6]: 495.17 J mol^−1 K^−1; IC50 [7]: 38.5 ± 2.1 µM; IC50 [8]: 81.5 ± 0.1 µM; solubility [2, 13]: soluble; solubility [2, 14]: moderately soluble; IC50 [9]: 48.3 ± 1.5 µM; IC50 [10]: 32.5 ± 2.6 µM |
| insoluble | > 100 µM | 18600 M⁻¹ | 0.97 | -5.858 kcal/mol | 20400 M⁻¹ | 0.98 | -6.021 kcal/mol | 22900 M⁻¹ | 0.96 | -6.181 kcal/mol | 3.826 kcal/mol | 135.08 J mol^−1 K^−1 | > 100 µM | 1.05 | -5.578 kcal/mol | 1.08 | -6.761 kcal/mol | 1.16 | -7.945 kcal/mol | [Co(PLAG)2]SO4^.2H2O [Co-PLAG] | ΔHb [6]: 66.597 kcal/mol; ΔSb [6]: 990.11 J mol^−1 K^−1; IC50 [7]: > 100 µM; IC50 [8]: > 100 µM; solubility [2, 13]: soluble; solubility [2, 14]: moderately soluble; IC50 [9]: > 100 µM; IC50 [11]: > 100 µM; IC50 [12]: > 100 µM; IC50 [10]: > 100 µM |
| insoluble | > 100 µM | 31800 M⁻¹ | 1.12 | -6.171 kcal/mol | 83200 M⁻¹ | 1.10 | -6.888 kcal/mol | 234000 M⁻¹ | 1.04 | -7.605 kcal/mol | 36.898 kcal/mol | 600.66 J mol^−1 K^−1 | > 100 µM | 1.09 | -5.081 kcal/mol | 0.90 | -6.647 kcal/mol | 1.12 | -8.212 kcal/mol | [Fe(PLAG)2]SO4^.2H2O [Fe-PLAG] | ΔHb [6]: 90.411 kcal/mol; ΔSb [6]: 1309.95 J mol^−1 K^−1; IC50 [7]: > 100 µM; IC50 [8]: > 100 µM; solubility [2, 13]: soluble; solubility [2, 14]: moderately soluble; IC50 [9]: > 100 µM; IC50 [11]: > 100 µM; IC50 [12]: > 100 µM; IC50 [10]: > 100 µM |
| insoluble | > 100 µM | 58000 M⁻¹ | 1.13 | -6.561 kcal/mol | 124000 M⁻¹ | 1.09 | -7.065 kcal/mol | 208000 M⁻¹ | 1.03 | -7.567 kcal/mol | 23.61 kcal/mol | 420.77 J mol^−1 K^−1 | > 100 µM | 1.11 | -6.848 kcal/mol | 0.99 | -6.898 kcal/mol | 0.95 | -6.948 kcal/mol | [Zn(PLAG)(SO4)(H2O)]^.H2O [Zn-PLAG] | IC50 [7]: > 100 µM; IC50 [8]: > 100 µM; solubility [2, 13]: soluble; solubility [2, 14]: moderately soluble; IC50 [9]: > 100 µM; IC50 [11]: > 100 µM; IC50 [12]: > 100 µM; IC50 [10]: > 100 µM |
